Measurements published in patent US20260077047A1, “CANCER THERAPY” (TURBINE SIMULATED CELL TECHNOLOGIES LTD, priority 2022, published 2026).

Assays:
Assay in all cases: ATM inhibition viability assay (CTG) on cells ± NEK-1 knockout
Type in all cases: cell-based
Settings in all cases: AZD1390 10 μM-0.00152 μM, 7 days, normalized to DMSO
[1] = system: Daoy cells ± NEK-1 knockout
Experimental: (§1) • i. Adhered cells were washed with 1 mL DPBS and trypsinised by addition of trypsin to 0.05% w/v and incubation under standard conditions. • ii. 1 mL cell culture medium was added to the detached cells to inhibit trypsin and suspended cells were centrifuged at 200×g for 5 minutes at room temperature. • iii. The supernatant was discarded and the cells were resuspended in 1 ml cell culture medium and exact cell number was determined using hemocytometer after Trypan blue staining. • iv. Cells were seeded according to table 5 in 90 μl/well in opaque 96-well plates in triplicate. Cells were grown overnight under standard conditions in complete culture medium (see 1c) […].
(§2) • v. Cells were treated with AZD1390 over the concentration range 10 μM-0.00152 μM, prepared by 10-point 3× serial dilutions from a 10 mM DMSO stock. Cells were incubated under standard conditions with the compounds for 7 days with refresh of the medium and drug twice a week. • vi. After the 7 day incubation, CGT assays were performed to assess cell viability.
(§3) Data showing cell viability for NEK1 knockout cell lines and NT cell lines are shown in FIGS. 4A-D. Data are normalized relative to cells treated with DMSO only.

[2] = system: HCC1806 cells ± NEK-1 knockout
Experimental: as §1, §2, §3

[3] = system: HSC-2 cells ± NEK-1 knockout
Experimental: as §1, §2, §3

Measured: effect on cell viability when combined with a NEK-1 knockout

CC(C)n1c(=O)n(C)c2cnc3cc(F)c(-c4ccc(OCCCN5CCCCC5)nc4)cc3c21 [AZD1390]
synergistic effect: all assays above
